# Data as given in the kinase profiling compilation of Christmann-Franck et al. (2016).
# Target: IRAK4 (human) (UniProt Q9NWZ3)
# Experiment: radiometric filter-binding kinase assay
# Settings: compound 100.0 µM; ATP 20 µM
# IRAK4 (human), sequence (Q9NWZ3 whole entry, looked up): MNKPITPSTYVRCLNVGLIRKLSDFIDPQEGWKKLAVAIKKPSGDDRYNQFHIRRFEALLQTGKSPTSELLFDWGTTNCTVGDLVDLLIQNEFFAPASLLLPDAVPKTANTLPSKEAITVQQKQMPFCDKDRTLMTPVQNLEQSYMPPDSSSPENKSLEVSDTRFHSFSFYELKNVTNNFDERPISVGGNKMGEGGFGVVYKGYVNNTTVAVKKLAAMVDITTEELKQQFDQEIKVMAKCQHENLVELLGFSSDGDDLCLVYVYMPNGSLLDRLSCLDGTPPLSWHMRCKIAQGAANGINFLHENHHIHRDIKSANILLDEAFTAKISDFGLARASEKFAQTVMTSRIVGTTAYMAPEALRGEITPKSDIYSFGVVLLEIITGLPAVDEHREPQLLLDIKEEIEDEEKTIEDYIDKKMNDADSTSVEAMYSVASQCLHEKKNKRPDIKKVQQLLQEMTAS
row,SMILES,inhibition
1,CC(=O)Nc1nc2cnc(-c3c(C)cccc3C)cn2n1,0%
2,CC(C)(C)Nc1c(C2CC2)nc2[nH]cnn12,0%
3,O=c1cc(-c2ccccc2F)nc2[nH]ccn12,40%

# Target: NTRK1 (human) (UniProt P04629)
# Experiment: radiometric filter-binding kinase assay
# Settings: compound 100.0 µM; ATP 20 µM
row,SMILES,inhibition
1,COc1ccc(-c2cc3c(=O)[nH]cnc3s2)cc1OC,15%
2,COc1ccc(NC(=S)Nc2cnc3[nH]cnn3c2=O)cn1,0%
3,CC(=O)Nc1nc2cnc(-c3c(C)cccc3C)cn2n1,0%
4,CC(C)(C)Nc1c(C2CC2)nc2[nH]cnn12,27%
5,O=c1cc(-c2ccccc2F)nc2[nH]ccn12,50%

# Target: JAK2 JH1 JH2 (human) (UniProt O60674)
# Experiment: radiometric filter-binding kinase assay
# Settings: compound 100.0 µM; ATP 5 µM
row,SMILES,inhibition
1,COc1ccc(-c2cc3c(=O)[nH]cnc3s2)cc1OC,60%
2,COc1ccc(NC(=S)Nc2cnc3[nH]cnn3c2=O)cn1,23%
3,CC(=O)Nc1nc2cnc(-c3c(C)cccc3C)cn2n1,9%
4,CC(C)(C)Nc1c(C2CC2)nc2[nH]cnn12,3%
5,O=c1cc(-c2ccccc2F)nc2[nH]ccn12,25%

# Target: MAP2K6 (human) (UniProt P52564)
# Experiment: radiometric filter-binding kinase assay
# Settings: compound 100.0 µM; ATP 50 µM
row,SMILES,inhibition
1,COc1ccc(-c2cc3c(=O)[nH]cnc3s2)cc1OC,18%
2,COc1ccc(NC(=S)Nc2cnc3[nH]cnn3c2=O)cn1,0%
3,CC(=O)Nc1nc2cnc(-c3c(C)cccc3C)cn2n1,0%
4,CC(C)(C)Nc1c(C2CC2)nc2[nH]cnn12,3%
5,O=c1cc(-c2ccccc2F)nc2[nH]ccn12,0%

# Target: MAPKAPK2 (human) (UniProt P49137)
# Sequence (P49137 whole entry, looked up): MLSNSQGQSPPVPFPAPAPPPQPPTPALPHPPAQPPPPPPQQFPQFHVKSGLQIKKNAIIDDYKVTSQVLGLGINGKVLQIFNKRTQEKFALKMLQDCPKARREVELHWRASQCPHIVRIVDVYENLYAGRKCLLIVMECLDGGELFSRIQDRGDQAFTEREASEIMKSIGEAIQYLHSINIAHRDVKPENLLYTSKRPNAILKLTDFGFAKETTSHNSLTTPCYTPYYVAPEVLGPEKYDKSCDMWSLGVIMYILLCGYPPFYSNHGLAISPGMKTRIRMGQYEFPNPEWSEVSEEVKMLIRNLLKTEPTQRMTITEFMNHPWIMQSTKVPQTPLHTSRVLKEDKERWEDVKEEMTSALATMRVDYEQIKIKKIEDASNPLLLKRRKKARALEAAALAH
# Experiment: radiometric filter-binding kinase assay
# Settings: compound 100.0 µM; ATP 20 µM
row,SMILES,inhibition
1,COc1ccc(-c2cc3c(=O)[nH]cnc3s2)cc1OC,8%
2,COc1ccc(NC(=S)Nc2cnc3[nH]cnn3c2=O)cn1,26%
3,CC(=O)Nc1nc2cnc(-c3c(C)cccc3C)cn2n1,0%
4,CC(C)(C)Nc1c(C2CC2)nc2[nH]cnn12,0%
5,O=c1cc(-c2ccccc2F)nc2[nH]ccn12,22%

# Target: MAPK15 (human) (UniProt Q8TD08)
# Experiment: radiometric filter-binding kinase assay
# Settings: compound 100.0 µM; ATP 5 µM
row,SMILES,inhibition
1,COc1ccc(-c2cc3c(=O)[nH]cnc3s2)cc1OC,18%
2,COc1ccc(NC(=S)Nc2cnc3[nH]cnn3c2=O)cn1,8%
3,CC(=O)Nc1nc2cnc(-c3c(C)cccc3C)cn2n1,7%
4,CC(C)(C)Nc1c(C2CC2)nc2[nH]cnn12,60%
5,O=c1cc(-c2ccccc2F)nc2[nH]ccn12,18%

# Target: HIPK1 (human) (UniProt Q86Z02)
# Experiment: radiometric filter-binding kinase assay
# Settings: compound 100.0 µM; ATP 20 µM
row,SMILES,inhibition
1,COc1ccc(-c2cc3c(=O)[nH]cnc3s2)cc1OC,13%
2,COc1ccc(NC(=S)Nc2cnc3[nH]cnn3c2=O)cn1,0%
3,CC(=O)Nc1nc2cnc(-c3c(C)cccc3C)cn2n1,0%
4,CC(C)(C)Nc1c(C2CC2)nc2[nH]cnn12,6%
5,O=c1cc(-c2ccccc2F)nc2[nH]ccn12,30%

# Target: PAK4 (human) (UniProt O96013)
# Experiment: radiometric filter-binding kinase assay
# Settings: compound 100.0 µM; ATP 5 µM
row,SMILES,inhibition
1,COc1ccc(-c2cc3c(=O)[nH]cnc3s2)cc1OC,30%
2,COc1ccc(NC(=S)Nc2cnc3[nH]cnn3c2=O)cn1,15%
3,CC(=O)Nc1nc2cnc(-c3c(C)cccc3C)cn2n1,0%
4,CC(C)(C)Nc1c(C2CC2)nc2[nH]cnn12,0%
5,O=c1cc(-c2ccccc2F)nc2[nH]ccn12,11%

# Target: PAK6 (human) (UniProt Q9NQU5)
# Experiment: radiometric filter-binding kinase assay
# Settings: compound 100.0 µM; ATP 20 µM
row,SMILES,inhibition
1,COc1ccc(-c2cc3c(=O)[nH]cnc3s2)cc1OC,0%
2,COc1ccc(NC(=S)Nc2cnc3[nH]cnn3c2=O)cn1,0%
3,CC(=O)Nc1nc2cnc(-c3c(C)cccc3C)cn2n1,0%
4,CC(C)(C)Nc1c(C2CC2)nc2[nH]cnn12,0%
5,O=c1cc(-c2ccccc2F)nc2[nH]ccn12,3%

# Target: CDK2 CCNA2 (human) (UniProt P20248+P24941)
# Experiment: radiometric filter-binding kinase assay
# Settings: compound 100.0 µM; ATP 20 µM
row,SMILES,inhibition
1,COc1ccc(-c2cc3c(=O)[nH]cnc3s2)cc1OC,0%
2,COc1ccc(NC(=S)Nc2cnc3[nH]cnn3c2=O)cn1,0%
3,CC(=O)Nc1nc2cnc(-c3c(C)cccc3C)cn2n1,0%
4,CC(C)(C)Nc1c(C2CC2)nc2[nH]cnn12,33%
5,O=c1cc(-c2ccccc2F)nc2[nH]ccn12,21%

# Target: AURKB (human) (UniProt Q96GD4)
# Experiment: radiometric filter-binding kinase assay
# Settings: compound 100.0 µM; ATP 20 µM
row,SMILES,inhibition
1,COc1ccc(-c2cc3c(=O)[nH]cnc3s2)cc1OC,19%
2,COc1ccc(NC(=S)Nc2cnc3[nH]cnn3c2=O)cn1,0%
3,CC(=O)Nc1nc2cnc(-c3c(C)cccc3C)cn2n1,0%
4,CC(C)(C)Nc1c(C2CC2)nc2[nH]cnn12,34%
5,O=c1cc(-c2ccccc2F)nc2[nH]ccn12,0%

# Target: RPS6KA1 KD1 KD2 (human) (UniProt Q15418)
# Experiment: radiometric filter-binding kinase assay
# Settings: compound 100.0 µM; ATP 50 µM
row,SMILES,inhibition
1,COc1ccc(-c2cc3c(=O)[nH]cnc3s2)cc1OC,59%
2,COc1ccc(NC(=S)Nc2cnc3[nH]cnn3c2=O)cn1,19%
3,CC(=O)Nc1nc2cnc(-c3c(C)cccc3C)cn2n1,0%
4,CC(C)(C)Nc1c(C2CC2)nc2[nH]cnn12,3%
5,O=c1cc(-c2ccccc2F)nc2[nH]ccn12,16%

# Target: MAPK11 (human) (UniProt Q15759)
# Sequence (Q15759 whole entry, looked up): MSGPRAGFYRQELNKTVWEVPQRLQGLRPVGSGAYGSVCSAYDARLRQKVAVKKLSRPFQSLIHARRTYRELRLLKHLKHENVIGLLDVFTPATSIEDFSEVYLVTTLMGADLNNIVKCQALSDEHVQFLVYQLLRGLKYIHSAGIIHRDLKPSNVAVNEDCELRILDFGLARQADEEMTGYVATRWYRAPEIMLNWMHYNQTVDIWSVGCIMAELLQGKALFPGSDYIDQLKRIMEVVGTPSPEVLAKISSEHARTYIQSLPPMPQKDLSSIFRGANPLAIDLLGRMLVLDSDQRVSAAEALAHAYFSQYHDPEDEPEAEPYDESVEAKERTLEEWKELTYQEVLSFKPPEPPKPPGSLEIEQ
# Experiment: radiometric filter-binding kinase assay
# Settings: compound 100.0 µM; ATP 20 µM
row,SMILES,inhibition
1,COc1ccc(-c2cc3c(=O)[nH]cnc3s2)cc1OC,15%
2,COc1ccc(NC(=S)Nc2cnc3[nH]cnn3c2=O)cn1,0%
3,CC(=O)Nc1nc2cnc(-c3c(C)cccc3C)cn2n1,0%
4,CC(C)(C)Nc1c(C2CC2)nc2[nH]cnn12,0%
5,O=c1cc(-c2ccccc2F)nc2[nH]ccn12,23%

# Target: MAPK10 (human) (UniProt P53779)
# Sequence (P53779 whole entry, looked up): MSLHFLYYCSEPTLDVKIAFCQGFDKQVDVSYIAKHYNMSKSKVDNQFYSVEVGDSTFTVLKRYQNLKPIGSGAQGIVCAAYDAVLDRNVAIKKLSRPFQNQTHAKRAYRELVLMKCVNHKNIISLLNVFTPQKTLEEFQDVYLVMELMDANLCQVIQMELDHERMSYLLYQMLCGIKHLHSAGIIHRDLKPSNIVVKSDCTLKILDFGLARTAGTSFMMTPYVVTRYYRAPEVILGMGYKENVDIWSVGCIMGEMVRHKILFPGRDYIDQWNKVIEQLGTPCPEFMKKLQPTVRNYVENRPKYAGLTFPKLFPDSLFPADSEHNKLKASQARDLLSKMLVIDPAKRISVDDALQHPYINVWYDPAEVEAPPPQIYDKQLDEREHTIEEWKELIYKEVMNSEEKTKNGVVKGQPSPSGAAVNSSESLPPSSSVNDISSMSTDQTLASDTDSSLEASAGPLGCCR
# Experiment: radiometric filter-binding kinase assay
# Settings: compound 100.0 µM; ATP 20 µM
row,SMILES,inhibition
1,COc1ccc(-c2cc3c(=O)[nH]cnc3s2)cc1OC,3%
2,COc1ccc(NC(=S)Nc2cnc3[nH]cnn3c2=O)cn1,0%
3,CC(=O)Nc1nc2cnc(-c3c(C)cccc3C)cn2n1,0%
4,CC(C)(C)Nc1c(C2CC2)nc2[nH]cnn12,1%
5,O=c1cc(-c2ccccc2F)nc2[nH]ccn12,0%

# Target: AURKA (human) (UniProt O14965)
# Sequence (O14965 whole entry, looked up): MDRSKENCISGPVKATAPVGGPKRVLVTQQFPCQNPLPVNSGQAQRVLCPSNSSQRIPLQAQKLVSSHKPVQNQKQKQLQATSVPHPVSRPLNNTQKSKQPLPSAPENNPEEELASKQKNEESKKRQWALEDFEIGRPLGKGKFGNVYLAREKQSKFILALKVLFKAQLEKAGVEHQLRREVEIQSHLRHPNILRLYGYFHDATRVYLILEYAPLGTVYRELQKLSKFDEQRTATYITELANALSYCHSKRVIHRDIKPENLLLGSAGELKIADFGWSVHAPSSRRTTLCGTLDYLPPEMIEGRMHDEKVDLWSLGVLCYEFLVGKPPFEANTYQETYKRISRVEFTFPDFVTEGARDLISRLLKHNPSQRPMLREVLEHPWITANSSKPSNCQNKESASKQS
# Experiment: radiometric filter-binding kinase assay
# Settings: compound 100.0 µM; ATP 5 µM
row,SMILES,inhibition
1,COc1ccc(-c2cc3c(=O)[nH]cnc3s2)cc1OC,1%
2,COc1ccc(NC(=S)Nc2cnc3[nH]cnn3c2=O)cn1,23%
3,CC(=O)Nc1nc2cnc(-c3c(C)cccc3C)cn2n1,10%
4,CC(C)(C)Nc1c(C2CC2)nc2[nH]cnn12,16%
5,O=c1cc(-c2ccccc2F)nc2[nH]ccn12,17%

# Target: MKNK2 (human) (UniProt Q9HBH9)
# Sequence (Q9HBH9 whole entry, looked up): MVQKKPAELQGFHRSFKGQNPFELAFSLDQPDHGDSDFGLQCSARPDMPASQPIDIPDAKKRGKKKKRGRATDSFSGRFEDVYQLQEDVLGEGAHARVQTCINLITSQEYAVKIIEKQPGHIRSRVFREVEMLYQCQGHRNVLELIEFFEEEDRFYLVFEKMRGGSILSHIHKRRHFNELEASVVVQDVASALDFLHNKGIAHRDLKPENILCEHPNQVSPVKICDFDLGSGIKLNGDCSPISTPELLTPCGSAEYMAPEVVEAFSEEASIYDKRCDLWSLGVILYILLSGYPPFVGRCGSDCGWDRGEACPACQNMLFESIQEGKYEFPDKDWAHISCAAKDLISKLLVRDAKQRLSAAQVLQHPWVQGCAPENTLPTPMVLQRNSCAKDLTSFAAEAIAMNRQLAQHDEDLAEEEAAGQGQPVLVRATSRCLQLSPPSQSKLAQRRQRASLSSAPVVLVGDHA
# Experiment: radiometric filter-binding kinase assay
# Settings: compound 100.0 µM; ATP 50 µM
row,SMILES,inhibition
1,COc1ccc(-c2cc3c(=O)[nH]cnc3s2)cc1OC,21%
2,COc1ccc(NC(=S)Nc2cnc3[nH]cnn3c2=O)cn1,0%
3,CC(=O)Nc1nc2cnc(-c3c(C)cccc3C)cn2n1,0%
4,CC(C)(C)Nc1c(C2CC2)nc2[nH]cnn12,9%
5,O=c1cc(-c2ccccc2F)nc2[nH]ccn12,26%

# Target: PLK1 (human) (UniProt P53350)
# Sequence (P53350 whole entry, looked up): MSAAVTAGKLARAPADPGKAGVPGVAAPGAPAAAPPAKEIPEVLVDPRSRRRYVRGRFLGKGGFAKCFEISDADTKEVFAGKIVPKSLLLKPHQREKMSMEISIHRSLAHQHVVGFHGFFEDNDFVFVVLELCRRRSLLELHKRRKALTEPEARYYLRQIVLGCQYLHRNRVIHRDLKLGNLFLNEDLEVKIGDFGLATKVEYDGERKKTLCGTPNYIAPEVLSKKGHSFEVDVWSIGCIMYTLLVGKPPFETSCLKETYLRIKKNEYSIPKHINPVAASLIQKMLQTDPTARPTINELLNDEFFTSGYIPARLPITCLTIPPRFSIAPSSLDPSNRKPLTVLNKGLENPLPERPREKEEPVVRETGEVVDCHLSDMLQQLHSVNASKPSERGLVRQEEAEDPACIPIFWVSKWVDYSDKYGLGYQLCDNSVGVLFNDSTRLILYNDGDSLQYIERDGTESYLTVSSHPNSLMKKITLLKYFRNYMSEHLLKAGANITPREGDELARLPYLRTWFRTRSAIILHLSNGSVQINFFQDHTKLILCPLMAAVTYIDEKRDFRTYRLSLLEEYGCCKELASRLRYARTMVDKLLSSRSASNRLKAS
# Experiment: radiometric filter-binding kinase assay
# Settings: compound 100.0 µM; ATP 5 µM
row,SMILES,inhibition
1,COc1ccc(-c2cc3c(=O)[nH]cnc3s2)cc1OC,0%
2,COc1ccc(NC(=S)Nc2cnc3[nH]cnn3c2=O)cn1,8%
3,CC(=O)Nc1nc2cnc(-c3c(C)cccc3C)cn2n1,0%
4,CC(C)(C)Nc1c(C2CC2)nc2[nH]cnn12,0%
5,O=c1cc(-c2ccccc2F)nc2[nH]ccn12,8%

# Target: SRPK1 (human) (UniProt Q96SB4)
# Sequence (Q96SB4 whole entry, looked up): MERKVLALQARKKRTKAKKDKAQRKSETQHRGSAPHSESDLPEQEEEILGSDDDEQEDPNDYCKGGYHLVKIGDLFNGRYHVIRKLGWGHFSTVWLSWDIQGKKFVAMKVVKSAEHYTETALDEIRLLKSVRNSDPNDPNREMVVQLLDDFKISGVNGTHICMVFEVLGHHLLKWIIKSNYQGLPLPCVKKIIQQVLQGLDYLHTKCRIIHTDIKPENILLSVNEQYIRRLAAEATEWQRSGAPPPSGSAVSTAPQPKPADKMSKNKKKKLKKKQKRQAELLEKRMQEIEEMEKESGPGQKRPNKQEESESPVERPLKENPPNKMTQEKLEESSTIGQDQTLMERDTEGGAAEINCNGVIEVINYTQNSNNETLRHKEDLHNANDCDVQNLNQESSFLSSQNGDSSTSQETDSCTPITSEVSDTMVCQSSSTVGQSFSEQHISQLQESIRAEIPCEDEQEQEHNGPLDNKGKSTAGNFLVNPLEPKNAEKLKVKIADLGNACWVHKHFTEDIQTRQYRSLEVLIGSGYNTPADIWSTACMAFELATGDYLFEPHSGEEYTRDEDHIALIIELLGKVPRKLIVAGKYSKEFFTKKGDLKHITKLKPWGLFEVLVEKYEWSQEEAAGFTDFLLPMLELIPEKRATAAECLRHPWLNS
# Experiment: radiometric filter-binding kinase assay
# Settings: compound 100.0 µM; ATP 50 µM
row,SMILES,inhibition
1,COc1ccc(-c2cc3c(=O)[nH]cnc3s2)cc1OC,36%
2,COc1ccc(NC(=S)Nc2cnc3[nH]cnn3c2=O)cn1,42%
3,CC(=O)Nc1nc2cnc(-c3c(C)cccc3C)cn2n1,10%
4,CC(C)(C)Nc1c(C2CC2)nc2[nH]cnn12,0%
5,O=c1cc(-c2ccccc2F)nc2[nH]ccn12,0%

# Tested on: ROCK2 (rat)
# Experiment: radiometric filter-binding kinase assay
# Settings: compound 100.0 µM; ATP 20 µM; accession and sequence are those of the human protein
row,SMILES,inhibition
1,COc1ccc(-c2cc3c(=O)[nH]cnc3s2)cc1OC,19%
2,COc1ccc(NC(=S)Nc2cnc3[nH]cnn3c2=O)cn1,7%
3,CC(=O)Nc1nc2cnc(-c3c(C)cccc3C)cn2n1,0%
4,CC(C)(C)Nc1c(C2CC2)nc2[nH]cnn12,2%
5,O=c1cc(-c2ccccc2F)nc2[nH]ccn12,29%

# Target: MAP3K9 (human) (UniProt P80192)
# Sequence (P80192 whole entry, looked up): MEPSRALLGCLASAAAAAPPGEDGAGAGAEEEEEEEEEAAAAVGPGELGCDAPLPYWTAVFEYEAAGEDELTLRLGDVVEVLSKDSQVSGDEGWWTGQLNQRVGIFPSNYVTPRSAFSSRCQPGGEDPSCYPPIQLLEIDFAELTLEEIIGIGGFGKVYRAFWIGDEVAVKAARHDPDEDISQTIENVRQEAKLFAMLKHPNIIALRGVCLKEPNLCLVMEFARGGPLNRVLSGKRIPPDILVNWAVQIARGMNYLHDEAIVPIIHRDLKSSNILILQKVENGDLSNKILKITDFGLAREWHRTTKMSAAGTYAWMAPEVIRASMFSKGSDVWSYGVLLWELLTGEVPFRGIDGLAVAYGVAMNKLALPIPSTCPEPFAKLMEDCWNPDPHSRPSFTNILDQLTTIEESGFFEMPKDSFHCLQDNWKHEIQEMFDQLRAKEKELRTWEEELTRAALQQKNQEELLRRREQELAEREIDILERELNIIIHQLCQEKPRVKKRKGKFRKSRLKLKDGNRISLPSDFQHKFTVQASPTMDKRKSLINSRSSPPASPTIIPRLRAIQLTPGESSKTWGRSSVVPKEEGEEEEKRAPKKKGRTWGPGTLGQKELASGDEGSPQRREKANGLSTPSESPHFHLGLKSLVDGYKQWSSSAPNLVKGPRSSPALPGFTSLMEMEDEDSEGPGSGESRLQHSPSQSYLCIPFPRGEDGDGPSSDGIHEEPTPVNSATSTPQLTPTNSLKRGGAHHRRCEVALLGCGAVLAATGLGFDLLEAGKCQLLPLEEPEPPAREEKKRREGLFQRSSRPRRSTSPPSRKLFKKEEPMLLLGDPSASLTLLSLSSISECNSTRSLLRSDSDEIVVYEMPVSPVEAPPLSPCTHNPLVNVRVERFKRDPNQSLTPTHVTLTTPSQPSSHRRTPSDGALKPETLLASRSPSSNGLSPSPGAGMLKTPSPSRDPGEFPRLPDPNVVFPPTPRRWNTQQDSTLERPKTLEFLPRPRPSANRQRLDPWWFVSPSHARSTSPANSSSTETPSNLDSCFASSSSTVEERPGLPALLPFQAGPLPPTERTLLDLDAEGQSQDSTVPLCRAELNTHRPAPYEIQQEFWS
# Experiment: radiometric filter-binding kinase assay
# Settings: compound 100.0 µM; ATP 20 µM
row,SMILES,inhibition
1,COc1ccc(-c2cc3c(=O)[nH]cnc3s2)cc1OC,4%
2,COc1ccc(NC(=S)Nc2cnc3[nH]cnn3c2=O)cn1,0%
3,CC(=O)Nc1nc2cnc(-c3c(C)cccc3C)cn2n1,0%
4,CC(C)(C)Nc1c(C2CC2)nc2[nH]cnn12,0%
5,O=c1cc(-c2ccccc2F)nc2[nH]ccn12,0%
